Reference: patent US10857201B2, “NNIF and nNIF-related peptides and related methods” (UNIVERSITY OF UTAH RESEARCH FOUNDATION, priority 2016, dated 2020)

What was measured:
[1] = tested on: neutrophil extracellular trap (NET) formation; assay: In vitro NET formation by stimulated human PMNs (live cell imaging, NET-associated histone H3 release); format: cell-based
Procedure: Qualitative assessment of NET formation was performed as previously reported (see Yost C C, et al., Blood. 2009; 113 (25):6419-27 and McInturff A M, et al., Blood. 2012; 120 (15):3118-25). Briefly, primary PMNs isolated from preterm infants, healthy term infants, and healthy adults (2×10^6 cells/mL) were incubated with control buffer or stimulated with indicated agonists or bacteria for 1 hour at 37° C. in 5% CO2/95% air on glass coverslips coated with poly-L-lysine. For selected experiments, primary PMNs were pre-incubated with autologous plasma, cord blood plasma, nNIF (0.2-70 nM), CRISPP (0.2-70 nM), nNIF-SCR (1 nM), or CRISPP-SCR (1 nM) for one hour prior to stimulation. After pre-incubation and/or stimulation, PMNs were gently washed with PBS and incubated with a mixture of cell permeable (SYTO® Green, MOLECULAR PROBES®) and impermeable (SYTOX® Orange, MOLECULAR PROBES®) DNA fluorescent dyes. Confocal microscopy was accomplished using a FV1000 IX81 confocal microscope and FLUOVIEW™ software (OLYMPUS™). Both 20× and 60× objectives were used. Z-series images were obtained at a step size of 1 μm over a range of 20 μm for each field. FLUOVIEW™ and ADOBE™ PHOTOSHOP™ CS2 software was used for image processing.
Using BSL 2 safety protocols, primary PMNs isolated from healthy adults (2×10^6 cells/mL) were incubated with mock infection buffer or live dengue virus (M010.05) as for live cell imaging. After a 1-hour incubation, the infected PMNs were fixed with 2% p-FA for 10 minutes prior to incubation with fluorescently-labeled, cell-permeable and cell-impermeable DNA dyes, and imaged as for live cell imaging using confocal microscopy.
NET-associated histone H3 content was determined as previously described (see McInturff A M, et al., Blood. 2012; 120 (15):3118-25). After live cell imaging of control and stimulated primary PMNs (2×10^6/mL; various agonists), the cells were incubated with PBS containing DNase (40 U/mL) for 15 minutes at room temperature to break down and release NETs formed in response to stimulation. The supernatant was gently removed and centrifuged at 420×g for 5 minutes. The cell-free supernatant was then mixed 3:1 with 4× Laemmli buffer prior to western blotting. A polyclonal primary antibody against human histone H3 protein (CELL SIGNALING®) and infrared-conjugated secondary antibodies (LI-COR®) were used. Imaging and densitometry were performed on the ODYSSEY® infrared imaging system)(LI-COR®). This assay was previously validated as a surrogate for NET formation under in vitro conditions (see McInturff A M, et al., Blood. 2012; 120 (15):3118-25) as employed in the present studies.
Without being bound by any specific theory, it was hypothesized that placentally expressed HTRA1, a serine protease, regulates the formation of NET-inhibitory peptides through cleavage of AAT. To test this hypothesis, term and preterm placenta were assessed for HTRA1 expression via western blotting. HTRA1 and AAT plasma expression from term and preterm infants and adults were determined by ELISA. Bioactive (0.5 μg) or placental eluted HTRA1 was incubated with AAT (8 μM) for 18 hours at 37° C. Carboxy-terminus fragments of AAT were detected using western blotting and mass spectrometry. The reaction products were incubated for 1 hour with PMNs isolated from healthy adults prior to LPS stimulation (100 ng/mL) and assessed for NET formation using live cell imaging. Reactive oxygen species were assessed using flow cytometry, chemotaxis using a modified Boyden chamber assay, and bacterial killing using E. coli.

[2] = tested on: C57BL/6 mice challenged with LPS; assay: Mouse model of systemic inflammation induced by LPS (endotoxemia), survival; format: in vivo; conditions: i.p. LPS, first experiment, n=6 per group
Procedure: Animals with no treatments or given LPS alone were studied in parallel (n≥10 mice for each condition). **P<0.01, log-rank (Mantel-Cox) statistical tool used. The survival difference between nNIF-LPS and CRISPP-LPS compared to CRISPP-SCR-LPS trended toward significance (§ P=0.051).
Control mice were i.p. injected with saline alone. Fluid resuscitation and antibiotic treatment were not used in these experiments. Survival was assessed over 50 or 72 hour intervals. All mice were included in the final survival analysis.

[3] = tested on: NET formation in E. coli peritonitis; assay: Mouse model of E. coli peritonitis (in vivo NET formation); conditions: C57BL/6 mice, 10 mg/kg i.p. 1 hour before E. coli i.p., 3 hours
Excerpt: FIG. 8A depicts results of peritoneal fluid NET formation (red fluorescence, yellow arrow) assessed by live cell imaging (60× magnification, scale bar=50 μm) and histone H3 release (red dashed line=baseline arbitrarily set at 1). Three mice per group. One way ANOVA with Tukey's post hoc testing, ***P<0.001 for CRISPP and nNIF versus CRISPP-SCR.
FIG. 8B depicts results of NET formation on the surfaces of peritoneal membranes (red fluorescence, yellow arrows) that was quantified by counting the number of NETs that crossed standardized grid lines in […] (60× magnification; scale bar=50 μm) using IMAGEJ™ software. A second experiment yielded a similar pattern. FIGS. 8A and 8B depict C57BL/6 mice that were not pretreated or pretreated with nNIF, CRISPP, or CRISPP-SCR (10 mg/kg i.p.; 1 hour) and were inoculated with E. coli (4.5×10^7 bacteria i.p.). After 3 hours, the animals were sacrificed, and peritoneal fluid (FIG. 8A) and membranes (FIG. 8B) were collected for analysis.
FIG. 8C depicts C57BL/6 mice that were not pretreated (left two bars) or that were pretreated with CRISPP, nNIF, or CRISPP-SCR, and that were inoculated with E. coli i.p. as in FIGS. 8A and 8B. Neutrophil numbers in peritoneal fluid were counted after 3 hours (3-5 mice/group). […]
FIG. 8E depicts peritoneal fluid NET formation, imaged and measured as in FIG. 8A (10 mice/group). *P<0.05 for CRISPP/E. coli and nNIF/E. coli compared to CRISPP-SCR/E. coli and E. coli.
FIG. 8F depicts NET formation on peritoneal membrane surfaces, imaged and quantitated as in FIG. 8B (3 mice in each group). *P<0.05 for E. coli versus control (red dashed line); **P<0.01 for CRISPP-SCR/E. coli versus control; †P<0.05 for CRISPP/E. coli and nNIF/E. coli versus CRISPP-SCR/E. coli. One way ANOVA with Tukey's post-hoc testing applied in FIGS. 8E and 8F. In FIGS. 8E and 8F, Swiss-Webster mice that were not pretreated or that were pretreated with nNIF, CRISPP, or CRISPP-SCR were inoculated with E. coli i.p. as in FIGS. 8A and 8B. After 3 hours, peritoneal fluid and membranes were collected. FIGS. 8A-8F indicate that nNIF and CRISPP inhibit in vivo NET formation.
(§1) C57/BL6 or Swiss-Webster mice were pretreated in blinded fashion with CRISPP (10 mg/kg), nNIF (10 mg/kg), or CRISPP-SCR (10 mg/kg) by i.p. injection 1 hour prior to infection (E. coli, 4.5×10^7 cfu/mouse, i.p.) or inoculation (LPS, 25 mg/kg, i.p.) (SIGMA-ALDRICH®). Control mice were injected with saline alone. The mice were sacrificed in a CO2 chamber 3 hours post-infection/inoculation, and the peritoneal fluid and membrane samples were harvested. Briefly, the abdomen was disinfected and opened in the midline without injuring the muscle. The peritoneal cavity was lavaged with sterile saline solution (1 mL) and analyzed for in vivo NET formation, bacteriology, and leukocyte accumulation. NETs in the peritoneal fluid were qualitatively and quantitatively analyzed using live cell imaging with confocal microscopy and NET-associated histone H3 release assays. NETs on the serosal surface of the peritoneal membrane were assessed quantitatively using live cell imaging, followed by standardized grid analysis of five randomly selected high-power visual fields per tissue sample (IMAGEJ™ software, NIH). Peritoneal bacterial colony forming unit (cfu) counts were quantified by permeabilizing all recovered leukocytes with 0.1% Triton X-100 for 10 minutes and performing serial dilutions and bacterial cultures on 5% sheep blood agar plates (HARDY DIAGNOSTICS™). After a 24-hour incubation, bacterial counts were determined. Total leukocyte counts in the peritoneal lavage were determined in Neubauer chambers using an optical microscope after dilution in Turk's solution (2% acetic acid). Differential leukocyte analysis was performed using a 60× oil immersion objective to assess morphology of cyto-centrifuged cells stained with May-Gruenwald-Giemsa dye. All mice were included in the final analysis.

[4] = tested on: LPS-induced peritoneal NET formation; assay: Mouse model of LPS-induced peritonitis (in vivo NET formation); conditions: C57BL/6 mice, i.p. LPS
Procedure: as §1

In the case of “V_MDITPMQVGPLKMKPKVIFNPFKLFENF [CRISPP-SCR, scrambled control peptide of CRISPP, reference compound]”, the “PMA-stimulated NET deployment” value ([1]; PMA 20 nM, peptides 1 nM, 1 hour preincubation) is reported as “not”, the “NET formation triggered by LPS” value ([1]; adult PMNs preincubated with agent, LPS 100 ng/mL, 1 hour) is reported as “does not” and the “animals alive at 50 hours” value [2] is reported as 30%. For the same substance, the “NET formation by peritoneal fluid PMNs” value [3] was “not”, the “deployment of NETs on the peritoneal surface” value [3] was “not” and the “LPS-induced peritoneal NET formation” value [4] was “not”.
